Several values for one entry are separate records, joined by “and”; a condition that tells them apart may be missing. Equal entries are not always repeated. Structures can show the parent of a compound that is named as a salt.
| melting point | Compound |
| --- | --- |
| 77 °C | Cc1ccc(CS(=O)(=O)Cl)cc1 [alpha-p-xylenesulfonyl chloride] |
| -62 °C | CC1=CC[C@@H]2C[C@H]1C2(C)C [alpha-pinene] |
| 108 °C | O=C2\C(=C(/N(N2c1ccccc1)C)C)N(C)C [aminopyrine] |
| 183 °C | Nc1cccc(-n2ccccc2=O)c1 [amphenidone] |
| 200 °C | CC1(C)S[C@@H]2[C@H](NC(=O)[C@H](N)c3ccccc3)C(=O)N2[C@H]1C(=O)O [ampicillin] |
| 130 °C | CC12CCC=C1C1CCC3CC(O)CCC3(C)C1CC2 (stereo not given) [androst-14-en-3-ol] |
| 108 °C | CC12CCC3C(CCC4CCCCC43C)C1CC(=O)C2 (stereo not given) [androstan-16-one] |
| 216 °C (4×) and 218 °C | c1ccc2cc3ccccc3cc2c1 [anthracene] |
| 111 °C and 112 °C and 109 °C | O=C2\C=C(/N(N2c1ccccc1)C)C [antipyrine] |
| 245 °C | Nc1ncnc2c1ncn2Cc1c(F)cccc1Cl [arprinocid] |
| 275 °C | NC(CC(=O)O)C(=O)O (stereo not given) [aspartic acid] |
| 138 °C | CC(=O)Oc1ccccc1C(=O)O [aspirin] [listing 1 of 2 here] |
| 142 °C | CC(=O)Oc1ccccc1C(=O)O [aspirin] [listing 2 of 2 here] |
| 136 °C | O=Cc1ccc(O)cc1O [b-Resorcylaldehyde] |
| -61 °C | C=C1CCC2CC1C2(C)C (stereo not given) [b-pinene] |
| 220 °C | c1ccc(-c2ccnc3c2ccc2c(-c4ccccc4)ccnc23)cc1 [bathophenanthroline] |
| 149 °C | CNC(=O)c1cc([N+](=O)[O-])cc([N+](=O)[O-])c1 [benzamide, N-methyl-3,5-dinitro-] |
| 129 °C and 130 °C | NC(=O)c1ccccc1 [benzamide] |
| 155 °C | C(=Cc1ccccc1)Cc1ccccc1 [benzene, 1,1'-(1-propene-1,3-diyl)bis-] |
| 217 °C | OB(O)c1ccccc1 [benzeneboronic acid] |
| 48 °C | O=S(=O)(O)c1ccccc1 [benzenesulfonic acid] |

| melting point | Compound |
| --- | --- |
| 19 °C | ClC(c1ccccc1)c1ccccc1 [benzhydryl chloride] |
| 80 °C | c1ccc2c(c1)OCCOCCOCCOCCO2 [benzo-15-crown-5] |
| 100 °C | OCc1cc2ccccc2s1 [benzo[b]thiophene-2-methanol] |
| 92 °C | CCOC(=O)c1ccc(N)cc1 [benzocaine] |
| 122 °C | O=C(O)c1ccccc1 [benzoic acid] |
| 135 °C | O=C(c1ccccc1)C(O)c1ccccc1 (stereo not given) [benzoin] [listing 1 of 2 here] |
| 134 °C | O=C(c1ccccc1)C(O)c1ccccc1 (stereo not given) [benzoin] [listing 2 of 2 here] |
| 138 °C | N#Cc1ccc2ncsc2c1 [benzothiazole-6-carbonitrile] |
| 59 °C | CC(=O)CC(=O)c1ccccc1 [benzoylacetone] |
| -51 °C | CC(=O)OCc1ccccc1 [benzyl acetate] |
| -15 °C | OCc1ccccc1 [benzyl alcohol] |
| 19 °C | O=C(OCc1ccccc1)c1ccccc1 [benzyl benzoate] |
| -51 °C | CC(=O)OCc1ccccc1 [benzyl_acetate] |
| 19 °C | O=C(OCc1ccccc1)c1ccccc1 [benzyl_benzoate] |
| -52 °C | COCc1ccccc1 [benzyl_methyl_ether] |
| 10 °C | NCc1ccccc1 [benzylamine] |
| 186 °C | CC(C)(Oc1ccc(CCNC(=O)c2ccc(Cl)cc2)cc1)C(=O)O [bezafibrate] |
| 179 °C | OB(O)c1ccccc1-c1ccccc1 [biphenyl-2-boronic acid] |
| 228 °C | NC(=O)c1ccc(-c2ccccc2)cc1 [biphenyl-4-carboxamide] |
| 183 °C | CC1(C)COB(B2OCC(C)(C)CO2)OC1 [bis(neopentyl glycolato)diboron] |
| 62 °C | Fc1c(F)c(F)c(P(c2ccccc2)c2c(F)c(F)c(F)c(F)c2F)c(F)c1F [bis(pentafluorophenyl)phenylphosphine] |

| melting point | Compound |
| --- | --- |
| 46 °C | C[Si](C)(C)OS(=O)(=O)O[Si](C)(C)C [bis(trimethylsilyl) sulfate] |
| 87 °C | CC(C)(C)OC(=O)N[C@@H](Cc1ccccc1)C(=O)O [boc-phenylalanine] |
| 153 °C | CCCCOc1ccc(CC(=O)NO)cc1 [bufexamac] |
| 40 °C | O=C(NCc1ccccc1)OCCO [buramate] |
| 116 °C | CS(=O)(=O)OCCCCOS(C)(=O)=O [busulfan] |
| 58 °C | CCCCOC(=O)c1ccc(N)cc1 [butyl 4-aminobenzoate] |
| -92 °C (3×) and -91.5 °C (2×) | CCCCOC(=O)CCC [butyl butyrate] |
| 58 °C | CCCCOC(=O)c1ccc(N)cc1 [butyl p-aminobenzoate] |
| -19 °C | CCCCOc1ccccc1 [butyl_phenyl_ether] |
| -75 °C | CCCCC1CCCCC1 [butylcyclohexane] |
| 116 °C | CCCC(N)=O [butyramide] |
| -75 °C | CCCC(=O)OC(=O)CCC [butyric anhydride] |
| 12 °C | CCCC(=O)c1ccccc1 [butyrophenone] |
| 238 °C (2×) and 235 °C (2×) | Cn1c(=O)c2c(ncn2C)n(C)c1=O [caffeine] [listing 1 of 2 here] |
| 238 °C | Cn1c(=O)c2c(ncn2C)n(C)c1=O [caffeine] [listing 2 of 2 here] |
| 35 °C | C=C1[C@@H]2CC[C@@H](C2)C1(C)C [camphene] |
| 174 °C | CC12CCC(CC1=O)C2(C)C (stereo not given) [camphor] [listing 1 of 2 here] |
| 177 °C | CC12CCC(CC1=O)C2(C)C (stereo not given) [camphor] [listing 2 of 2 here] |
| 180 °C | CC1(C)[C@@H]2CC[C@@]1(C)C(=O)C2 [camphor] |
| 200 °C | CC12CCC(C(=O)C1=O)C2(C)C (stereo not given) [camphorquinone] |
| 192 °C | NC(=O)N1c2ccccc2C=Cc2ccccc21 [carbamazepine] |

| melting point | Compound |
| --- | --- |
| 247 °C and 243 °C | c1ccc2c(c1)[nH]c1ccccc12 [carbazole] |
| 203 °C | NC(=O)CN1Cc2ccccc2OC1=O [caroxazone] |
| 105 °C | Oc1ccccc1O [catechol] [listing 1 of 2 here] |
| 106 °C | Oc1ccccc1O [catechol] [listing 2 of 2 here] |
| 120 °C | CN(C)CCC(O)(c1ccccc1)c1ccccc1Cl (stereo not given) [chlophedianol] |
| -94 °C | ClC1CCCC1 [chlorocyclopentane] |
| 128 °C | CCCNC(=O)NS(=O)(=O)c1ccc(Cl)cc1 [chlorpropamide] |
| 148 °C | CC(C)CCCC(C)C1CCC2C3CC=C4CC(O)CCC4(C)C3CCC12C (stereo not given) [cholest-5-en-3-ol] |
| 77 °C | CCCCCCCCC(=O)O[C@H]1CC[C@@]2(C)C(=CC[C@H]3[C@@H]4CC[C@H]([C@H](C)CCCC(C)C)[C@@]4(C)CC[C@@H]32)C1 [cholesteryl nonanoate] |
| 80 °C | CCCCCCCCCCCCCCCCCC(=O)O[C@H]1CC[C@@]2(C)C(=CC[C@H]3[C@@H]4CC[C@H]([C@H](C)CCCC(C)C)[C@@]4(C)CC[C@@H]32)C1 [cholesteryl stearate] |
| 152 °C | O=Cc1coc2ccccc2c1=O [chromone-3-carboxaldehyde] |
| 141 °C | CNC(=NC#N)NCCSCc1nc[nH]c1C [cimetidine] |
| 34 °C | OC/C=C/c1ccccc1 [cinnamyl alcohol] |
| -100 °C | C/C=C\CCCCC [cis-2-octene] |
| -151 °C | C/C=C\CC [cis-2-pentene] |
| -138 °C | CC/C=C\CC [cis-3-hexene] |
| -119 °C | CCC/C=C\CCC [cis-4-octene] |
| -16 °C | C1=C\CCCCCC/1 [cis-cyclooctene] |
| 286 °C | C/C(=C/C(=O)NN)C(=O)NN [citraconic hydrazide] |
| 153 °C | O=C(O)CC(O)(CC(=O)O)C(=O)O [citric acid anhydrous] |
| 154 °C | O=C(O)CC(O)(CC(=O)O)C(=O)O [citric acid, anhydrous] |

| Compound | melting point |
| --- | --- |
| CCCN(CCC)C(=O)Cc1c(-c2ccc(Cl)cc2)nc2ccc(Cl)cn12 [alpidem] | 140 °C |
| N#Cc1c2ccccc2cc2ccccc12 [anthracene-9-carbonitrile] | 177 °C |
| COc1ccc(CCN2CCC(Nc3nc4ccccc4n3Cc3ccc(F)cc3)CC2)cc1 [astemizole] | 149 °C |
| OC(c1ccccc1)(c1ccccc1)C1CCNCC1 [azacyclonol] | 160 °C |
| CCCCNCC(O)c1ccc(O)cc1 (stereo not given) [bamethan] | 124 °C |
| CN1CCC(N(Cc2ccccc2)c2ccccc2)CC1 [bamipine] | 114 °C |
| SCc1ccccc1 [benzyl mercaptan] | -29 °C and -29.2 °C |
| O=[N+]([O-])/C=C/c1cccc([N+](=O)[O-])c1 [beta,3-dinitrostyrene] | 126 °C |
| O=[N+]([O-])/C=C/c1ccc([N+](=O)[O-])cc1 [beta,4-dinitrostyrene] | 204 °C |
| OB(O)c1ccc(-c2ccccc2)cc1 [biphenyl-4-boronic acid] | 243 °C |
| O=Cc1ccc(-c2ccccc2)cc1 [biphenyl-4-carboxaldehyde] | 59 °C |
| ClCCOCCCl [bis(2-chloroethyl) ether] | -50 °C |
| CCCCC(CC)COC(=O)c1ccccc1C(=O)OCC(CC)CCCC (stereo not given) [bis-2-ethylhexyl_phthalate] | -50 °C |
| Brc1ccc(Oc2ccc(Br)cc2)cc1 [bis-p-bromophenyl_ether] | 60 °C |
| Brc1ccccc1 [bromobenzene] | -31 °C |
| ClC(Cl)Br [bromodichloromethane] | -55 °C |
| CCBr [bromoethane] | -119 °C |
| BrC(Br)Br [bromoform] | 9 °C |
| O=C(O)C(=O)CBr [bromopyruvic acid] | 78 °C |
| C1O[C@@H]1[C@H]1CO1 [butadiene diepoxide] | -19 °C |
| C=C(Br)CC1(C(C)CC)C(=O)NC(=O)NC1=O (stereo not given) [butallylonal] | 132 °C |
| CCCCC#N [butyl_cyanide] | -96 °C |
| O=C(O)CCl [chloroacetic acid] | 62 °C |
| O=C(Cl)CCl [chloroacetyl chloride] | -22 °C |
| Cl/C=C\Cl [cis-1,2-dichloroethylene] | -80 °C |
| COc1ccc2c(C(=O)c3ccc(Cl)cc3)c(C)n(CC(=O)O)c2c1 [clometacin] | 242 °C |

Source: the Bradley open melting point set (2014)
